Data as given in ChEMBL document CHEMBL1201862, “PubChem BioAssay data set” (2004).
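1) Cells in 96-well plates. 2) Compound, 48 h, 5 concentrations. 3) Linear interpolation between surrounding doses. 4) Unreached endpoint = highest concentration. Abbreviation: GI50, concentration required for 50% inhibition of growth.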 Calls of active or inactive are those of the source. No stated cut-off is given here; in the data, active = GI50 up to about 1.1 µM and inactive = higher.

Legend:
Test in all cases: NCI anticancer screen, dose series, 48 h
HCT-15 = tested on: HCT-15
OVCAR-8 = tested on: OVCAR-8
SN12C = tested on: SN12C
SK-OV-3 = tested on: SK-OV-3
MDA-N = tested on: MDA-N
IGROV-1 = tested on: IGROV-1
MDA-MB-231 = tested on: MDA-MB-231
K562 = tested on: K562
BT-549 = tested on: BT-549
HCT-116 = tested on: HCT-116
LOX IMVI = tested on: LOX IMVI
RPMI-8226 = tested on: RPMI-8226
RXF 393 = tested on: RXF 393
Malme-3M = tested on: Malme-3M
COLO 205 = tested on: COLO 205
UO-31 = tested on: UO-31
SNB-75 = tested on: SNB-75
SW-620 = tested on: SW-620
Hs-578T = tested on: Hs-578T
HL-60 = tested on: HL-60

Structure (SMILES): O=C1c2ccccc2-c2c1c1ccccc1c(=O)n2CCO
- GI50 (HCT-15): 5.83 µM
- GI50 (OVCAR-8): 9.38 µM (inactive)
- GI50 (SN12C): 10.8 µM (inactive)
- GI50 (SK-OV-3): 30.8 µM (inactive)
- GI50 (MDA-N): 51.8 µM (inactive)
- GI50 (IGROV-1): 20.5 µM (inactive)
- GI50 (MDA-MB-231): 46 µM (inactive)
- GI50 (K562): > 36 µM (inactive)
- GI50 (BT-549): 18.5 µM (inactive)
- GI50 (HCT-116): 4.83 µM (inactive)
- GI50 (LOX IMVI): 5.28 µM (inactive)
- GI50 (RPMI-8226): > 26.9 µM (inactive)
- GI50 (RXF 393): 32.1 µM (inactive)
- GI50 (Malme-3M): 26.5 µM (inactive)
- GI50 (COLO 205): 4.9 µM (inactive)
- GI50 (UO-31): 4.06 µM (inactive)
- GI50 (SNB-75): 25.4 µM (inactive)
- GI50 (SW-620): 7.29 µM (inactive)
- GI50 (Hs-578T): 29.8 µM (inactive)
- GI50 (HL-60): 2.4 µM (inactive)

Structure (SMILES): CN(C)CCC(C(=O)C(C)(C)C)c1ccccn1 (stereo not given)
- GI50 (HCT-15): > 100 µM
- GI50 (OVCAR-8): > 100 µM (inactive)
- GI50 (SN12C): > 100 µM (inactive)
- GI50 (SK-OV-3): > 100 µM (inactive)
- GI50 (MDA-N): > 100 µM (inactive)
- GI50 (IGROV-1): > 100 µM (inactive)
- GI50 (MDA-MB-231): > 100 µM (inactive)
- GI50 (K562): > 100 µM (inactive)
- GI50 (BT-549): > 100 µM (inactive)
- GI50 (HCT-116): > 100 µM (inactive)
- GI50 (LOX IMVI): > 100 µM (inactive)
- GI50 (RPMI-8226): > 100 µM (inactive)
- GI50 (RXF 393): > 100 µM (inactive)
- GI50 (Malme-3M): > 100 µM (inactive)
- GI50 (COLO 205): > 100 µM (inactive)
- GI50 (UO-31): > 100 µM (inactive)
- GI50 (SNB-75): > 100 µM (inactive)
- GI50 (SW-620): > 100 µM (inactive)
- GI50 (Hs-578T): > 100 µM (inactive)
- GI50 (HL-60): > 100 µM (inactive)

Structure (SMILES): CCN(CCO)CCNc1ccc(C)c2sc3ccccc3c(=O)c12
- GI50 (HCT-15): 4.15 µM
- GI50 (OVCAR-8): 4.06 µM (inactive)
- GI50 (SN12C): 5.24 µM (inactive)
- GI50 (SK-OV-3): 5.66 µM (inactive)
- GI50 (MDA-N): 1.74 µM (inactive)
- GI50 (IGROV-1): 4.2 µM (inactive)
- GI50 (MDA-MB-231): 1.88 µM (inactive)
- GI50 (K562): 4.31 µM (inactive)
- GI50 (BT-549): 13.4 µM (inactive)
- GI50 (HCT-116): 2.88 µM (inactive)
- GI50 (LOX IMVI): 2.24 µM (inactive)
- GI50 (RPMI-8226): 4.28 µM (inactive)
- GI50 (RXF 393): 1.25 µM (inactive)
- GI50 (Malme-3M): 3.44 µM (inactive)
- GI50 (COLO 205): 1.63 µM (inactive)
- GI50 (UO-31): 5.41 µM (inactive)
- GI50 (SNB-75): 3.01 µM (inactive)
- GI50 (SW-620): 2.28 µM (inactive)
- GI50 (Hs-578T): 2.25 µM (inactive)
- GI50 (HL-60): 3.37 µM (inactive)

Structure (SMILES): c1cc(C[S+]2CCCC2)ccc1C[S+]1CCCC1
- GI50 (HCT-15): > 100 µM
- GI50 (OVCAR-8): > 100 µM (inactive)
- GI50 (SN12C): > 100 µM (inactive)
- GI50 (SK-OV-3): > 100 µM (inactive)
- GI50 (MDA-N): > 100 µM (inactive)
- GI50 (IGROV-1): > 100 µM (inactive)
- GI50 (MDA-MB-231): > 100 µM (inactive)
- GI50 (K562): > 100 µM (inactive)
- GI50 (BT-549): > 100 µM (inactive)
- GI50 (HCT-116): > 100 µM (inactive)
- GI50 (LOX IMVI): > 100 µM (inactive)
- GI50 (RPMI-8226): > 100 µM (inactive)
- GI50 (RXF 393): > 100 µM (inactive)
- GI50 (Malme-3M): > 100 µM (inactive)
- GI50 (COLO 205): > 100 µM (inactive)
- GI50 (UO-31): > 100 µM (inactive)
- GI50 (SNB-75): 52.1 µM (inactive)
- GI50 (SW-620): > 100 µM (inactive)
- GI50 (Hs-578T): > 100 µM (inactive)
- GI50 (HL-60): > 100 µM (inactive)

Structure (SMILES): COc1ccccc1NC1Oc2cc3c(cc2C(c2cc(OC)c(OC)c(OC)c2)C1C)OCO3 (stereo not given)
- GI50 (HCT-15): 3.06 µM
- GI50 (OVCAR-8): 4.69 µM (inactive)
- GI50 (SN12C): 5.57 µM (inactive)
- GI50 (SK-OV-3): 10.5 µM (inactive)
- GI50 (MDA-N): 0.358 µM (active)
- GI50 (IGROV-1): 3.24 µM (inactive)
- GI50 (MDA-MB-231): 1.78 µM (inactive)
- GI50 (K562): 0.875 µM (active)
- GI50 (BT-549): 2.84 µM (inactive)
- GI50 (HCT-116): 2.42 µM (inactive)
- GI50 (LOX IMVI): 6.62 µM (inactive)
- GI50 (RPMI-8226): 1.93 µM (inactive)
- GI50 (RXF 393): 1.14 µM (inactive)
- GI50 (Malme-3M): 0.383 µM (active)
- GI50 (COLO 205): 1.95 µM (inactive)
- GI50 (UO-31): 3.58 µM (inactive)
- GI50 (SNB-75): 0.951 µM (active)
- GI50 (SW-620): 1.19 µM (inactive)
- GI50 (Hs-578T): 6.44 µM (inactive)
- GI50 (HL-60): 0.612 µM (active)

Structure (SMILES): Cc1cc(=O)oc2c(C3=NN(C=O)C(c4ccccc4)C3)c(O)ccc12 (stereo not given)
- GI50 (HCT-15): > 78.5 µM
- GI50 (OVCAR-8): 71.1 µM (inactive)
- GI50 (SN12C): 90.2 µM (inactive)
- GI50 (SK-OV-3): 20.2 µM (inactive)
- GI50 (MDA-N): > 54.8 µM (inactive)
- GI50 (IGROV-1): 70 µM (inactive)
- GI50 (MDA-MB-231): 59.6 µM (inactive)
- GI50 (K562): > 91 µM (inactive)
- GI50 (BT-549): 65.6 µM (inactive)
- GI50 (HCT-116): 81.1 µM (inactive)
- GI50 (LOX IMVI): > 72.4 µM (inactive)
- GI50 (RPMI-8226): > 79.3 µM (inactive)
- GI50 (RXF 393): 38.2 µM (inactive)
- GI50 (Malme-3M): > 71.9 µM (inactive)
- GI50 (COLO 205): > 71.8 µM (inactive)
- GI50 (UO-31): 64.3 µM (inactive)
- GI50 (SNB-75): 3.22 µM (inactive)
- GI50 (SW-620): > 100 µM (inactive)
- GI50 (Hs-578T): 31.2 µM (inactive)
- GI50 (HL-60): > 100 µM (inactive)
